Where two headings read alike, the source gives them in different places.

Experiment [1] deals with T1, ER β (Homo sapiens, UniProt Q92731).
T1 construct: purchased Shanghai Tongwei Biotechnology Co., Ltd. (China)
Put plainly: Affinity ultrafiltration LC-MS screening (AUF-LC-MS) of Arnebiae Radix extract against ER β. As to conditions: specific binding = Aa/Ab (relative peak area active group / denatured group), extract 5.0 mg/ml, ER β 200 µg/ml, 37°C 60 min, <1.5 = non-ligand. How it is done: (§1) The above extract was dissolved in DMSO, and the solution was diluted with buffer (pH = 8.0) to a final concentration of 5.0 mg/ml. The sample solution and buffer were successively added to EP tubes. Then buffer, inactivated ER α solution (200 µg/ml, boiled in the water bath for 20 min), and ER α solution (200 µg/ml) were separately added as the blank control group, the denatured control group, and the sample group, respectively. The blank control group and denatured control group were set to exclude some interference factors about background, false positives, and non-specific binding. The group of mixtures was subsequently incubated in the dark at 37°C for 60 min to make a combination balance. Next, each mixture (200 μl) was transferred into an ultrafiltration tube and ultrafiltered at 12,000 rpm for 15 min at 4°C. Then, each group was washed three times with 300 μl of buffer to remove unbound small molecules. Finally, the ligands bound to ER α were dissociated from the complexes by incubating with 300 μl of methanol/water (90/10) for 10 min and then centrifuging at 12,000 rpm for 15 min at room temperature, three times. These ultrafiltrates for each group were dried under nitrogen gas at room temperature and reconstituted in 80 μl of methanol/water (50/50) prior to UHPLC-Q-Exactive Orbitrap MS analysis. All the screening assays were carried out in triplicate. Except for the replacement of the ER, the affinity ultrafiltration screening method of ER β is similar to that of ER α in the other steps.
(§2) The analyses are exercised on Q-Exactive Focus Orbitrap MS connected to Thermo Scientific Dionex Ultimate 3000 RS through an ESI source. For the chromatographic separation, a Thermo Scientific Hypersil GOLD™ aQ (100 mm × 2.1 mm, 1.9 μm) was applied at the flow rate of 0.3 ml/min. The 0.1% formic acid and acetonitrile were used as the mobile phases A and B, respectively. The optimized UHPLC elution procedures were conducted as follows: 0–2 min, 95%–90% A; 2–5 min, 90%–80% A; 5–10 min, 80%–75% A; 10–15 min, 75%–50% A; 15–25 min, 50%–45% A; 25–40 min, 45%–20% A; 40–45 min, 20%–5% A; 45–45.1 min, 5%–95% A; 45–50 min, 95% A. The column temperature was maintained at 35°C. For the MS/MS analysis, the mass spectrometer equipped with an electrospray ionization source was obtained with a resolution of 70,000 detected by the Orbitrap analyzer. In order to comprehensively explore compounds, the positive and negative ion modes were both selected. The mass spectrometry conditions are as follows: electrospray ion source, the spray voltage was 3.5 kV for positive ion mode and 3.2 kV for negative ion mode, sheath gas pressure was 35 arb, auxiliary gas pressure was 10 arb, and the temperature of capillary and auxiliary gas heater was 320°C and 350°C, respectively; and the S-lens RF level was 60. Full-scan data were acquired from m/z 100–1,200 by data-dependent MS^2 scanning or parallel reaction monitoring (PRM) mode. The nitrogen gas served as collision gas, and the energy was set as normalized collision energy 30%. Instrument and data were controlled by the Xcalibur software version 4.2.
Therefore, affinity ultrafiltration can rapidly screen and identify bioactive compounds in complex plant extracts by comparing the changes in peak areas before and after ultrafiltration. […] According to literature reports ([Munigunti et al., 2011]), compounds whose specific binding values were less than 1.5 were considered as non-ligands.

The target of experiment [2] is T1, ER β. Kind of experiment: SPR binding measurements (Biacore T200) on immobilized ER β. The conditions noted are these: for kon: read-out: Ka (association rate constant); for koff: read-out: Kd (dissociation rate constant). How it is done:
SPR binding measurements were performed using a Biacore T200 biosensor system (Cytiva, USA). All the SPR-based materials were acquired from Cytiva.
ER β was dissolved in PBS at 1.0 mg/ml and was then diluted in 20 μg/ml sodium acetate buffer at pH 5.0 and immobilized on a CM5 chip using an amine coupling kit. Sulfo-NHS (0.1 mol/l) and EDC (0.4 mol/l) with a 1:1 volume ratio were mixed at 25°C and flowed through a chip channel at 10 μl/min. ERβ was flowed through the chip channel at the same flow rate and reacted with the activated carboxyl groups on the chip for 600 s. Ethanolamine hydrochloride flowed through the chip channel at the same flow rate for 360 s.
Sensor preparation and interaction analyses were performed at 25°C in the PBS running buffer. Each analyte was dissolved in DMSO at 1 mg/ml and then dissolved in the running buffer at 0.20, 0.39, 0.78, 1.56, 3.13, 6.25, 12.5, and 25 μg/ml for SPR measurements.
The running buffer was used as the blank control. Eight groups of gradient concentrations of the same analyte (and the blank control) were flowed through the immobilized channel at a flow rate of 30 μl/min, with an association time of 180s and a dissociation time of 300 s. The collected signals were monitored in real time, and a reference flow cell without immobilized ER β served as a non-specific binding control. The rate constants of association and dissociation were calculated by the non-linear fitting method including the simultaneous fitting for the association and dissociation phases in each sensorgram in Biacore Evaluation Software version 3.2.1 (Cytiva, USA).

Another experiment deals with T2, ER α (Homo sapiens, UniProt P03372).
T2 construct: purchased Shanghai Tongwei Biotechnology Co., Ltd. (China)
T2 sequence (P03372 1-595): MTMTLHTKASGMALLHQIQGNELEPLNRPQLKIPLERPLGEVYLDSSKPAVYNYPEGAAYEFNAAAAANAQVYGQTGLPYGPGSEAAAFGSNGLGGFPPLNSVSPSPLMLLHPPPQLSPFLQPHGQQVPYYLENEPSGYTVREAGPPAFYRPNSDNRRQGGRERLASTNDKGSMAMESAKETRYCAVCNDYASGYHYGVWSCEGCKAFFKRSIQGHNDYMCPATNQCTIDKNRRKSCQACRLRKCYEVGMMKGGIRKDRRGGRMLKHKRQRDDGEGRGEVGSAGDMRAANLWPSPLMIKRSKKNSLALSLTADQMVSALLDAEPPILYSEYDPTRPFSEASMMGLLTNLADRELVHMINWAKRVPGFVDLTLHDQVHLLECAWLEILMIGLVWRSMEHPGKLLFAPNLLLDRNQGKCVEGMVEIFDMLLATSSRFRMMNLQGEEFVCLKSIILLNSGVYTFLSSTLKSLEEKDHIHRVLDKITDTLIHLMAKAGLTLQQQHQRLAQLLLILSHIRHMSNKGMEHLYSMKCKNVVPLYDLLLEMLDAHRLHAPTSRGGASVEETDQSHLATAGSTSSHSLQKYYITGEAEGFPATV
Put plainly: Affinity ultrafiltration LC-MS screening (AUF-LC-MS) of Arnebiae Radix extract against ER α. The conditions noted are these: specific binding = Aa/Ab (relative peak area active group / denatured group), extract 5.0 mg/ml, ER α 200 µg/ml, 37°C 60 min, <1.5 = non-ligand. How it is done:
as §1
as §2, with “For the chromatographic separation, a Thermo Scientific Hypersil GOLD™ aQ (100 mm × 2.1 mm, 1.9 μm) was applied at the flow rate of 0.3 ml/min.” left out, “The optimized UHPLC elution procedures were conducted as follows: 0–2 min, 95%–90% A; 2–5 min, 90%–80% A; 5–10 min, 80%–75% A; 10–15 min, 75%–50% A; 15–25 min, 50%–45% A; 25–40 min, 45%–20% A; 40–45 min, 20%–5% A; 45–45.1 min, 5%–95% A; 45–50 min, 95% A. The column temperature was maintained at 35°C.” left out
Therefore, affinity ultrafiltration can rapidly screen and identify bioactive compounds in complex plant extracts by comparing the changes in peak areas before and after ultrafiltration.

The next experiment has as its target thrombin. The arrangement: method as in Wang et al., 2017. The conditions noted are these: SPR, direct interaction with thrombin; ref Wang et al., 2017; cited from earlier work.
Where [3] appears, read: SPR, ER β on CM5 chip, 25°C, PBS running buffer, read-out: KD.
[4] abbreviates: SPR, ER β on CM5 chip, 25°C, PBS running buffer.

T1 sequence (Q92731 whole entry): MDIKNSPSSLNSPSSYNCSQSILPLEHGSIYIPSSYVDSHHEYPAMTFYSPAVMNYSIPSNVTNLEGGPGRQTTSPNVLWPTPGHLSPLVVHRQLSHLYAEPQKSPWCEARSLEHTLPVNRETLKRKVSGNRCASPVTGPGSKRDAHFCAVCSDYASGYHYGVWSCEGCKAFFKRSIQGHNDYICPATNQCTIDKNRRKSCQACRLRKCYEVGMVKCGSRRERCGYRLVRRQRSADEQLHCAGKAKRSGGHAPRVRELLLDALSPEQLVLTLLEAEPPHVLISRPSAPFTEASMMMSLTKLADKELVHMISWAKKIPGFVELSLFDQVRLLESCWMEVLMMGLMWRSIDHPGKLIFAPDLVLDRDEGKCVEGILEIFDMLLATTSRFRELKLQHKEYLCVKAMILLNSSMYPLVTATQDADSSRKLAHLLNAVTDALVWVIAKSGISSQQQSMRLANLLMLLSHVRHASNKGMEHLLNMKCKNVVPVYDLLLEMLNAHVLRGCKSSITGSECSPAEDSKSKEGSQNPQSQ

As to `O=c1c(O[C@@H]2O[C@H](CO)[C@@H](O)[C@H](O)[C@H]2O)c(-c2ccc(O)c(O)c2)oc2cc(O)cc(O)c12` [Isoquercitrin], the Specific binding on ER β [1] stood at 1.91. The molecule further came in with an Rmax at ER β [2] (SPR, ER β on CM5 chip, 25°C) of 9.57 RU. Further, the Kd at ER β [2] (setting [3]) was determined as 1040 nM. Also, at ER β [2] (setting [4]), the kon turned out to be 3020 M⁻¹ s⁻¹ and the koff amounted to 0.00314 s⁻¹.
For `O=C(/C=C/c1ccc(O)c2oc(-c3ccc(O)c(O)c3)cc12)O[C@H](Cc1ccc(O)c(O)c1)C(=O)O` [Salvianolic acid C], in that order: 1.75, 12.6 RU, 1980 nM, 1390 M⁻¹ s⁻¹ and 0.00276 s⁻¹.
Turning to `O=c1c(O)c(-c2ccc(O)c(O)c2)oc2cc(O)cc(O)c12` [Quercetin], the Specific binding on ER β [1] was found to be 1.54. Besides, the Rmax at ER β [2] (SPR, ER β on CM5 chip, 25°C) was 13.28 RU. Moreover, the Kd on ER β [2] (setting [3]) came to 1260 nM. In addition, on ER β [2], the kon turned out to be 2950 M⁻¹ s⁻¹ and the koff was 0.00372 s⁻¹.
Turning to `O=C(O)CC(O)(CC(=O)O)C(=O)O` [Citric acid], the Specific binding at ER β [1] is 1.78; on ER α it was 5.02.
For the molecule `O=C(/C=C/c1ccc(O)c(O)c1)O[C@H](Cc1ccc(O)c(O)c1)C(=O)O` [Rosmarinic acid], at ER β [1], the Specific binding is recorded as 2.66. This molecule gave an Rmax at ER β [2] (SPR, ER β on CM5 chip, 25°C) of 4.41 RU. Also, the Kd on ER β [2] (setting [3]) turned out to be 1320 nM. Besides, at ER β [2] (setting [4]), the kon worked out at 2020 M⁻¹ s⁻¹ and the koff was found to be 0.00266 s⁻¹.
Take `CCCC[C@H](N)C(=O)O` [Norleucine]: the Specific binding at ER β [1] is 2.29.
As for `C[C@@H]1O[C@@H](OC[C@H]2O[C@@H](Oc3c(-c4ccc(O)c(O)c4)oc4cc(O)cc(O)c4c3=O)[C@H](O)[C@@H](O)[C@@H]2O)[C@H](O)[C@H](O)[C@H]1O` [Rutin], the Rmax at ER β [2] (SPR, ER β on CM5 chip, 25°C) is listed as 7.78 RU. Further, on ER β [2] (setting [3]), the Kd is 934 nM.
Take `O=C(/C=C/c1ccc(O)c2c1[C@H](C(=O)O[C@H](Cc1ccc(O)c(O)c1)C(=O)O)[C@@H](c1ccc(O)c(O)c1)O2)O[C@H](Cc1ccc(O)c(O)c1)C(=O)O` [Salvianolic acid B]: the Specific binding at ER β [1] is recorded as 2.24. This molecule gave a Kd on ER β [2] of 2320 nM. At ER β [2] (SPR, ER β on CM5 chip, 25°C), this molecule yielded an Rmax of 3.51 RU. In addition, on ER β [2] (setting [4]), the kon was 788 M⁻¹ s⁻¹ and the koff stood at 0.00183 s⁻¹.
In the case of `N[C@@H](Cc1ccccc1)C(=O)O` [Phenylalanine], the values for the Specific binding at ER β [1] and on ER α were 2.39 and 6.36, respectively.
For `CC(C)=CCCC1=CC(=O)c2c(O)ccc(O)c2C1=O` [Deoxyshikonin], on ER α, the Specific binding was found to be 2.28.
On to `COc1ccc2cc3[n+](cc2c1OC)CCc1cc2c(cc1-3)OCO2` [berberine], for which, on thrombin, the Kd is 16400 nM.
For `O=C(O)CCCCC(=O)O` [Adipic acid], the Specific binding on ER α is 5.77.
With `O=C(O)CC(O)C(=O)O` (stereo not shown) [Malic acid], at ER β [1], the Specific binding is 2.20.
As for `COc1ccc(C2COc3cc(O)ccc3C2)c(OC)c1` (stereo not shown) [Sativan], the Specific binding on ER α was 2.15.

The values above are taken from publication PMC9676231, “Screening and characterization estrogen receptor ligands from Arnebia euchroma (Royle) Johnst. via affinity ultrafiltration LC-MS and molecular docking” (Frontiers in Plant Science, 2022).
